{TEG-Chol} = cholesteryl attached through a triethylene glycol (TEG) linker
Assays:
[1] = test system: EL-4 murine T lymphoma cells; assay: EL-4 lymphoma implanted subcutaneously in C57/BL6 mice; format: in vivo; settings: 1, 10, 100 mg/kg, after 4 weeks of treatment; versus saline and SEQ ID NO:3; dose-dependent
Protocol: EL-4 murine T lymphoma cells are implanted subcutaneously into C57/BL6 mice as previously described (Krawczyk et al., Cancer Immunol. Immunother. 40:347, 1995). The mice are divided into 7 groups of 10 mice. On day 0, group 1 mice receive saline, group 2 mice receive 1 mg/kg SEQ ID NO:3, group 3 mice receive 10 mg/kg SEQ ID NO:3, group 4 mice receive 100 mg/kg SEQ ID NO:3, group 5 mice receive 1 mg/kg SEQ ID NO:7, group 6 mice receive 10 mg/kg SEQ ID NO:7, group 7 mice receive 100 mg/kg SEQ ID NO:7. After 4 weeks of treatment, the mice are sacrificed and tumor mass is determined.

[2] = test system: MDA-MB-231 cells; assay: MDA-MB-231 xenotransplanted tumors in nude mice (Example 22); format: in vivo; settings: 0.5, 5, 50 mg/kg intravenously every 3 days, 6 doses maximum; versus saline and SEQ ID NO:3; dose-dependent
Protocol: MDA-MB-231 cells are xenotransplanted subcutaneously into nude mice. The mice are divided into 7 groups of 10 mice. After the tumors reach 5 mm in diameter, group 1 mice receive saline, group 2 mice receive 0.5 mg/kg SEQ ID NO:3, group 3 mice receive 5 mg/kg SEQ ID NO:3, group 4 mice receive 50 mg/kg SEQ ID NO:3, group 5 mice receive 0.5 mg/kg SEQ ID NO:7, group 6 mice receive 5 mg/kg SEQ ID NO:7, group 7 mice receive 50 mg/kg SEQ ID NO:7. Treatments are given intravenously every 3 days for 6 doses maximum. Mice are sacrificed when tumor reach 1 cm in diameter, at any sign of distress or at the end of the study (3 months from cell injection). Complete autopsies are performed. Tumor mass, presence of invasion and metastasis are determined.

[3] = test system: MDA-MB-231 cells; assay: MDA-MB-231 xenotransplanted tumors in nude mice (Example 23); format: in vivo; settings: 0.4, 4, 40 mg/kg intravenously every 3 days, 6 doses maximum; versus saline and SEQ ID NO:3; dose-dependent
Protocol: Breast cancer MDA-MB-231 cells are xenotransplanted subcutaneously in nude mice (1×10^7 cells). The mice are divided into 7 groups of 10 mice. After the tumors reach […] in diameter, group 1 mice receive saline, group 2 mice receive 0.4 mg/kg SEQ ID NO:3, group 3 mice receive 4 mg/kg SEQ ID NO:3, group 4 mice receive 40 mg/kg SEQ ID NO:3, group 5 mice receive 0.4 mg/kg SEQ ID NO:7, group 6 mice receive 4 mg/kg SEQ ID NO:7, group 7 mice receive 40 mg/kg SEQ ID NO:7. Treatments are given intravenously every 3 days for 6 doses maximum. Mice are sacrificed when tumor reach 1 cm in diameter, at any sign of distress or at the end of the study (3 months from cell injection). Complete autopsies are performed. Tumor mass, presence of invasion and metastasis are determined.

[4] = test system: EL-4 cells; assay: Apoptosis by phosphatidylserine redistribution (annexin V flow cytometry) in EL-4 cells; format: cell-based, murine; settings: 24 hours; for Percentage of positive cells for phosphatidylserine (cells in apoptosis) in EL-4 cells: untreated cells 7%; for Induction of apoptosis in EL-4 cells (in words): translocation of phosphatidylserine, up to 53.0 μM
Protocol: Redistribution of plasma membrane phosphatidylserine is a characteristic of cells undergoing apoptosis (Martin et al., J. Exp. Med., 182:1545, 1995). The redistribution of phosphatidylserine in the plasma membrane during apoptosis was measured by flow cytometry using FITC (fluorescein isothiocyanate)-conjugated annexin V (BD Pharmingen, San Diego, Calif.). MEG-01 cells, a human chronic myelogeneous leukemia cell line positive for the Philadelphia chromosome and having a BCR-ABL gene fusion, were incubated at 2.5×10^5 cells/ml for 48 hours with 5.3, 26.5 and 53.0 μM final concentrations of SEQ ID NO:1, SEQ ID NO:2, SEQ ID NO:5, SEQ ID NO:6 and cholesteryl-TEG phosphoramidite molecule. The percentage of cells in apoptosis after exposure to the SEQ ID NOs:1, 2, 5, 6, or cholesteryl-TEG phosphoramidite treatment is reported in Table 2. The percentage of apoptosis in untreated MEG-01 cells was 12%.
EL-4 cells, a murine T lymphoma cell line, were incubated at 2.5×10^5 cells/ml for 24 hours with 0.53, 5.3 and 53.0 μM concentrations of SEQ ID NO:3, SEQ ID NO:7 or cholesteryl-TEG phosphoramidite. The percentage of cells in apoptosis after exposure to SEQ ID NO:3, SEQ ID NO:7 or cholesteryl-TEG phosphoramidite treatment is reported in Table 3. The percentage of apoptosis in untreated EL-4 cells was 7%.

[5] = test system: MDA-MB-231 (MDA-231) cells; assay: Treatment of pre-formed 3-dimensional MDA-231 structures on MATRIGEL; format: cell-based, human; settings: MDA-231, 53 μM, repeated every 3-4 days up to 17-21 days, FIG. 4
Protocol: The MDA-MB-231 (MDA-231) cells were cultured in regular culture medium, trypsinized and counted. 100×10^3 of MDA-231 cells were plated in regular culture medium (RCM), in wells of 24-well plates coated with 350 μl of MATRIGEL®. After the formation of 3-dimensional structures during 48 hrs without any treatment, the medium was changed, and structures were exposed to a final concentration of 53 μM of SEQ ID NO:3, 53 μM of SEQ ID NO:7, 53 μM of cholesteryl-TEG phosphoramidite, RCM, or their respective control media (RCM with water, RCM with DMSO or RCM with acetonitrile). The treatments were repeated every 3-4 days until a maximum time in culture of 17-21 days. The experiment was repeated three times. Digital photographs of the cells in the 24-well plates were taken using a Nikon Coolpix 990 digital camera connected to a Nikon inverted microscope model TMS.

In the case of “5′ OH-CCACCC(TEG-cholesteryl) 3′ (3' {TEG-Chol}, sugars by position and backbone not given here) [SEQ ID NO:7]”, the Tumor mass [1] is reported as “less tumor mass”, the Tumor mass [2] is reported as “less tumor mass” and the “Tumor mass and metastasis” value [3] is reported as “less tumor mass and metastasis”. The “Percentage of positive cells for phosphatidylserine (cells in apoptosis) in EL-4 cells” value (shortened to “Percentage of positive cells”) ([4]; 0.53 μM) was 8%, the “Percentage of positive cells” value ([4]; 5.3 μM) was 11% and the “Percentage of positive cells” value ([4]; 53.0 μM) was 49%. The “Induction of apoptosis in EL-4 cells (in words)” value [4] was “capacity to induce apoptosis” and the “Effect on pre-formed 3-dimensional structures on MATRIGEL” value [5] was “disrupted the growth pattern of the structures”.
With “5′ OH-CCACCC-OH 3′ (listed as DNA, chemistry not fully specified) [SEQ ID NO:3]” the “Percentage of positive cells” value ([4]; 0.53 μM) was 7%, the “Percentage of positive cells” value ([4]; 5.3 μM) was 7% and the “Percentage of positive cells” value ([4]; 53.0 μM) was 7%. For the same substance, the “Induction of apoptosis in EL-4 cells (in words)” value [4] was “neither SEQ ID NO:3 nor cholesteryl-TEG phosphoramidite caused apoptosis” and the “Effect on pre-formed 3-dimensional structures on MATRIGEL” value [5] was “did not affect the 3-dimensional structures”.
